Test results reported in PMC5849685, “Molecular basis of an agarose metabolic pathway acquired by a human intestinal symbiont” (Nature Communications, 2018).

How the values were obtained:
Assay type in all cases: biochemical
GH86 = biological target: T1, GH86 (Bacteroides uniformis, UniProt A0A2D0TCD3); assay: FACE product analysis; settings: 20 mM Tris pH 8.0, 0.5 M NaCl, 37 C, overnight
T1 construct: nucleotides 61-1941 of the gene (signal peptide removed; about residues 21-646), N-terminal His6 tag with thrombin site, pET28a, E. coli BL21 Star (DE3)
T1 sequence (A0A2D0TCD3 4-629): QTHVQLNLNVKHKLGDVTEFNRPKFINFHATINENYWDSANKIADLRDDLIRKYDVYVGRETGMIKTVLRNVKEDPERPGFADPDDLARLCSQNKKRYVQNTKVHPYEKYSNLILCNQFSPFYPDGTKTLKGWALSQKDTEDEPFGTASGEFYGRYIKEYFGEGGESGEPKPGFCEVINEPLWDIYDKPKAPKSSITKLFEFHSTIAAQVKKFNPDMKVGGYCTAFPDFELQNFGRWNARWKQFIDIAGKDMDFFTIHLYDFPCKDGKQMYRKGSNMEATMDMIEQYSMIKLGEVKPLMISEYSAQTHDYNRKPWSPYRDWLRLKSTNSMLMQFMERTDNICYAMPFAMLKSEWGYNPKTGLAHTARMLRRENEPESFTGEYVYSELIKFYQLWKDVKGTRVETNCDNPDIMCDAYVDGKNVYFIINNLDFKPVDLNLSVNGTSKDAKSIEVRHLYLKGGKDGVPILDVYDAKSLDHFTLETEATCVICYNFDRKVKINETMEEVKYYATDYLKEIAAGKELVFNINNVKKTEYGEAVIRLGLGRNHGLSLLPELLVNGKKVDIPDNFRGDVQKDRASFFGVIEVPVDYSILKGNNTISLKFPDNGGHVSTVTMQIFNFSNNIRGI

GH16B = biological target: T2, GH16B (Bacteroides uniformis, UniProt A0A2D0TCD1); assay: FACE product analysis; settings: 20 mM Tris pH 8.0, 0.5 M NaCl, 37 C, overnight
T2 construct: nucleotides 67-1029 of the gene (signal peptide removed; about residues 23-342), N-terminal His6 tag with thrombin site, pET28a, E. coli BL21 Star (DE3)
T2 sequence (A0A2D0TCD1 4-323): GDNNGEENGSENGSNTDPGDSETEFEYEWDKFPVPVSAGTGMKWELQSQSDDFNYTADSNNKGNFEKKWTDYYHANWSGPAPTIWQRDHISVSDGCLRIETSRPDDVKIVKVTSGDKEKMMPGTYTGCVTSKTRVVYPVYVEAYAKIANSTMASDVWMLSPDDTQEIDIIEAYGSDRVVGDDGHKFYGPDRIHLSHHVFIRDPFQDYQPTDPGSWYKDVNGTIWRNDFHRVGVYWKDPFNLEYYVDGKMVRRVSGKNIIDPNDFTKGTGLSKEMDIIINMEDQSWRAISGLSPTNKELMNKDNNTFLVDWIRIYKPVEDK

GH2C = biological target: T3, GH2C (Bacteroides uniformis, UniProt A0A2D0TCC9); assay: TLC product analysis; settings: 2 uM enzyme, 2.5 mM A3, 20 mM Tris pH 8.0, 0.5 M NaCl, 37 C, 2 h
T3 construct: nucleotides 76-2547 of the gene (signal peptide removed; about residues 26-848), N-terminal His6 tag with thrombin site, pET28a, E. coli BL21 Star (DE3)
T3 sequence (A0A2D0TCC9 4-826): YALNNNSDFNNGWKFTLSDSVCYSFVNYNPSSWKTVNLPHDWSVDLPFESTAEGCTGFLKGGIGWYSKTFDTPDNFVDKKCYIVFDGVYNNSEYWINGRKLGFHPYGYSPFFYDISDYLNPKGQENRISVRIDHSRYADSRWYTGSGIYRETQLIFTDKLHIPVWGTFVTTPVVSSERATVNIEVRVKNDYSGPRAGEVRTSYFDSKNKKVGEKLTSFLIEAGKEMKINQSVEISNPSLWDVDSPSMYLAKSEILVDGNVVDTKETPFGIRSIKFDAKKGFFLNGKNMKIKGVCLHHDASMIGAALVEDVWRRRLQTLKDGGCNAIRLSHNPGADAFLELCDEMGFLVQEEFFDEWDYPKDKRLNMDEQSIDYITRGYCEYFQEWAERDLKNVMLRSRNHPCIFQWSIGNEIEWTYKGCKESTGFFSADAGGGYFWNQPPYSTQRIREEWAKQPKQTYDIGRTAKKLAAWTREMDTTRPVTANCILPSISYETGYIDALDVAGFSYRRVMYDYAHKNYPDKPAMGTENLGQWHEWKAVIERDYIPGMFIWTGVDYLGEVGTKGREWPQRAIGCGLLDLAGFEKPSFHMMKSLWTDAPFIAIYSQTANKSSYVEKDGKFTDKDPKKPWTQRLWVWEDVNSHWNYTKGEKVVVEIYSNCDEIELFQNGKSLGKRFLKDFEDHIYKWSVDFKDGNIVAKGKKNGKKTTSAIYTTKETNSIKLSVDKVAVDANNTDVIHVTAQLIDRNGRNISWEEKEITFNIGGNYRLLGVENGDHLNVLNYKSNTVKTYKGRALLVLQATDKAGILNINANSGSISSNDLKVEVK

GH117B = biological target: T4, GH117B (Bacteroides uniformis, UniProt A0A2D0TCD6); assay: TLC product analysis; settings: 0.5 uM enzyme, 0.5 mg/ml N2, 20 mM Tris pH 8.0, 0.5 M NaCl, 37 C, 24 h
T4 construct: nucleotides 76-1209 of the gene (signal peptide removed; about residues 26-402), N-terminal His6 tag with thrombin site, pET28a, E. coli BL21 Star (DE3); homodimer
T4 sequence (A0A2D0TCD6 4-380): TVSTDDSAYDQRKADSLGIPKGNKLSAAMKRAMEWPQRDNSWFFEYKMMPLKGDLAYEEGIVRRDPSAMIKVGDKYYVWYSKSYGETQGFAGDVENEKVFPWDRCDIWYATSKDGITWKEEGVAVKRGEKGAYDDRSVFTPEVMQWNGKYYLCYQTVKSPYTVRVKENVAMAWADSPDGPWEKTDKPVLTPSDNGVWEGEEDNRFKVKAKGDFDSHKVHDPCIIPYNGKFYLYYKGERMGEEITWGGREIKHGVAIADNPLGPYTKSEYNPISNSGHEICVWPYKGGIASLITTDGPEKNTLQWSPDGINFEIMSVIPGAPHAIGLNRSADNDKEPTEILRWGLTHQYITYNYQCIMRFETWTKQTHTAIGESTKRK

OC[C@H]1O[C@@H](O[C@H]2[C@H]3OC[C@@H]2O[C@@H](O[C@H]2[C@@H](O)[C@@H](CO)O[C@@H](O[C@H]4[C@H]5OC[C@@H]4O[C@@H](O[C@H]4[C@@H](O)[C@@H](CO)O[C@@H](O[C@H]6[C@H]7OC[C@@H]6O[C@@H](O[C@H]6[C@@H](O)[C@@H](CO)OC(O)[C@@H]6O)[C@H]7O)[C@@H]4O)[C@H]5O)[C@@H]2O)[C@H]3O)[C@H](O)[C@@H](O[C@@H]2O[C@H]3CO[C@@H]([C@@H]2O)[C@@H]3O)[C@H]1O (stereo partly drawn) [N8, neoagarooctaose]
FACE product analysis (GH86): GH86 was able to digest neoagarooctaose (N8) and neoagarohexaose (N6) to N2
FACE product analysis (GH16B): GH16B predominantly generated N4 from N8, N2 and N4 from N6

OC[C@H]1O[C@@H](O[C@H]2[C@H]3OC[C@@H]2O[C@@H](O[C@H]2[C@@H](O)[C@@H](CO)O[C@@H](O[C@H]4[C@H]5OC[C@@H]4O[C@@H](O[C@H]4[C@@H](O)[C@@H](CO)OC(O)[C@@H]4O)[C@H]5O)[C@@H]2O)[C@H]3O)[C@H](O)[C@@H](O[C@@H]2O[C@H]3CO[C@@H]([C@@H]2O)[C@@H]3O)[C@H]1O (stereo partly drawn) [N6, neoagarohexaose]
FACE product analysis (GH86): GH86 was able to digest neoagarooctaose (N8) and neoagarohexaose (N6) to N2
FACE product analysis (GH16B; weak activity): GH16B predominantly generated N4 from N8, N2 and N4 from N6

OC[C@H]1O[C@@H](O[C@H]2[C@H]3OC[C@@H]2O[C@@H](O[C@H]2[C@@H](O)[C@@H](CO)OC(O)[C@@H]2O)[C@H]3O)[C@H](O)[C@@H](O)[C@H]1O (stereo partly drawn) [A3, agarotriose]
TLC product analysis (GH2C): GH2C was able to hydrolyze A3

OC[C@H]1OC(O)[C@H](O)[C@@H](O[C@@H]2O[C@H]3CO[C@@H]([C@@H]2O)[C@@H]3O)[C@H]1O (stereo partly drawn) [N2, neoagarobiose]
TLC product analysis (GH117B): GAL and AHG released from N2 by GH117B
